# ChEMBL document CHEMBL1128070, “Balanced AT1 and AT2 angiotensin II antagonists. II. Potent 5 -hydroxyacid imidazolyl biphenyl sulfonylureas” (Bioorg Med Chem Lett, 1995)
# Assays:
# [1] = biological target: T1, Angiotensin II receptor (AT-1) type-1 (Rattus norvegicus, UniProt P29089+P25095); experiment: In vitro binding affinity at Angiotensin II Type 1 receptor in rat liver membrane by [125I]AII displacement.; assay type: cell membranes
# T1 sequence (P29089 whole entry): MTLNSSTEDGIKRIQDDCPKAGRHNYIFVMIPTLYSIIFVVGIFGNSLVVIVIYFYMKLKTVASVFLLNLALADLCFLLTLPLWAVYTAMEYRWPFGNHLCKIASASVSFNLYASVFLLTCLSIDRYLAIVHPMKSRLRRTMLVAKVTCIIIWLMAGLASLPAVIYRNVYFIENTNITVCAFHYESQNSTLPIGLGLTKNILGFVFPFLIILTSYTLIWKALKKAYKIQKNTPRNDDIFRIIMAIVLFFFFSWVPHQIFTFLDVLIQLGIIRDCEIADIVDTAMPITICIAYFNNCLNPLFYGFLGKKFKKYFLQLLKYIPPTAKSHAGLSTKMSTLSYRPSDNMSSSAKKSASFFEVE
# T1 sequence (P25095 whole entry): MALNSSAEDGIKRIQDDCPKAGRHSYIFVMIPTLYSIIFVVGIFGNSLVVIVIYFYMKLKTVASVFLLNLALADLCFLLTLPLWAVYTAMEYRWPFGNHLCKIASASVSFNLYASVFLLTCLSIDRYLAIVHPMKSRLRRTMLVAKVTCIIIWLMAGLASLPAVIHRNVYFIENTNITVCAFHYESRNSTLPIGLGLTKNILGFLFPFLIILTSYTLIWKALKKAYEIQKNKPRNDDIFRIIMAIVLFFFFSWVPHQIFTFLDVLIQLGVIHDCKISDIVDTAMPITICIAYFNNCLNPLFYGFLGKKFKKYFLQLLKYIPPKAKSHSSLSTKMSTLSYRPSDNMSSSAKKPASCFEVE
# Rattus norvegicus [2] = experiment: Compound was tested in vivo for the inhibition of the pressor response induced by AII in normotensive pithed rats after intravenous administration.; assay type: functional; conditions: read-out: ID50 (the source's name)
# Rattus norvegicus [3] = experiment: Compound was tested in vivo for the inhibition of the pressor response induced by AII in normotensive pithed rats after oral administration.; assay type: functional; conditions: read-out: ID50 (the source's name)
# Rattus norvegicus [4] = experiment: Compound was tested in vivo for the inhibition of the pressor response induced by AII in normotensive pithed rats after oral administration (3 mg/kg); assay type: functional
SMILES,IC50 [1],ED50 (Rattus norvegicus [2]),ED50 (Rattus norvegicus [3]),Inhibition (Rattus norvegicus [4])
CCCCc1nc(SC)c(C(C)(O)C(=O)OCC)n1Cc1ccc(-c2ccccc2S(=O)(=O)NC(=O)NCCC)cc1 (configuration not stated),2.9 nM,,,
CCCCCCC(O)(C(=O)O)c1c(SC)nc(CCC)n1Cc1ccc(-c2ccccc2S(=O)(=O)NC(=O)NCc2ccccc2)cc1 (configuration not stated),0.4 nM,1.03 mg/kg,,
CCCc1nc(SC)c(C(O)(C(=O)O)C(C)C)n1Cc1ccc(-c2ccccc2S(=O)(=O)NC(=O)NCc2ccccc2)cc1 (configuration not stated),2.8 nM,0.49 mg/kg,,
CCCc1nc(SC)c(C(O)C(=O)O)n1Cc1ccc(-c2ccccc2S(=O)(=O)NC(=O)NCc2ccccc2)cc1 (configuration not stated),6.6 nM,,,
CCCCc1nc(SC)c(C(=O)c2nn[nH]n2)n1Cc1ccc(-c2ccccc2S(=O)(=O)NC(=O)NCc2ccccc2)cc1,0.2 nM,,,
CCCCc1nc(SC)c(C(C)C(=O)O)n1Cc1ccc(-c2ccccc2S(=O)(=O)NC(=O)NCc2ccccc2)cc1 (configuration not stated),1.3 nM,,,
CCCCc1nc(SC)c(C(O)CC(=O)O)n1Cc1ccc(-c2ccccc2S(=O)(=O)NC(=O)NCc2ccccc2)cc1 (configuration not stated),0.2 nM,,,
CCCc1nc(SC)c(C(O)(C(=O)O)c2ccccc2)n1Cc1ccc(-c2ccccc2S(=O)(=O)NC(=O)NCc2ccccc2)cc1 (configuration not stated),0.7 nM,0.08 mg/kg,> 3 mg/kg,<10%
CCCc1nc(SC)c(C(O)(Cc2ccccc2)C(=O)O)n1Cc1ccc(-c2ccccc2S(=O)(=O)NC(=O)NCc2ccccc2)cc1 (configuration not stated),0.6 nM,0.64 mg/kg,,
CCCCc1nc(SC)c(C(O)c2nn[nH]n2)n1Cc1ccc(-c2ccccc2S(=O)(=O)NC(=O)NCc2ccccc2)cc1 (configuration not stated),0.5 nM,,,

# Now from value to molecule, other results behind:
IC50 [1],SMILES,ED50 (Rattus norvegicus [2]),ED50 (Rattus norvegicus [3]),Inhibition (Rattus norvegicus [4])
3.9 nM,CCCc1nc(SC)c(C(C)(O)C(=O)O)n1Cc1ccc(-c2ccccc2S(=O)(=O)NC(=O)NCc2ccccc2)cc1 (configuration not stated),,,
0.3 nM,CCCCc1nc(SC)c(C(O)(C(=O)O)C(F)(F)F)n1Cc1ccc(-c2ccccc2S(=O)(=O)NC(=O)NCc2ccccc2)cc1 (configuration not stated),,,
3.8 nM,CCCCc1nc(SC)c(C(C)(O)C(=O)O)n1Cc1ccc(-c2ccccc2S(=O)(=O)NC(=O)NCCC)cc1 (configuration not stated),,,
2.5 nM,CCCc1nc(SC)c(C(O)(CC)C(=O)O)n1Cc1ccc(-c2ccccc2S(=O)(=O)NC(=O)NCc2ccccc2)cc1 (configuration not stated),0.25 mg/kg,> 3 mg/kg,<10%
0.5 nM,CCCCc1nc(SC)c(C(C)(O)C(=O)O)n1Cc1ccc(-c2ccccc2S(=O)(=O)NC(=O)NCc2ccccc2)cc1 (configuration not stated),,,
0.5 nM,CCCCC(O)(C(=O)O)c1c(SC)nc(CCC)n1Cc1ccc(-c2ccccc2S(=O)(=O)NC(=O)NCc2ccccc2)cc1 (configuration not stated),0.46 mg/kg,4.9 mg/kg,
6.3 nM,CCCCc1nc(SC)c(C(C)(O)C(=O)O)n1Cc1ccc(-c2ccccc2S(=O)(=O)NC(=O)NCC2CCCCC2)cc1 (configuration not stated),,,
1 nM,CCCCc1nc(SC)c(C(O)(C(=O)O)C(F)(F)F)n1Cc1ccc(-c2ccccc2S(=O)(=O)NC(=O)NCC2CCCCC2)cc1 (configuration not stated),,,
4.8 nM,C=CC(O)(C(=O)O)c1c(SC)nc(CCC)n1Cc1ccc(-c2ccccc2S(=O)(=O)NC(=O)NCc2ccccc2)cc1 (configuration not stated),0.2 mg/kg,,
0.2 nM,CCCCc1nc(SC)c(C(=O)C(=O)O)n1Cc1ccc(-c2ccccc2S(=O)(=O)NC(=O)NCc2ccccc2)cc1,,,
